Target: T1, EHMT2 (Homo sapiens, UniProt Q96KQ7)
T1 construct: endogenous in cells; host or cells: MDA-MB-231 (ATCC)
T1 sequence (Q96KQ7 1-1210): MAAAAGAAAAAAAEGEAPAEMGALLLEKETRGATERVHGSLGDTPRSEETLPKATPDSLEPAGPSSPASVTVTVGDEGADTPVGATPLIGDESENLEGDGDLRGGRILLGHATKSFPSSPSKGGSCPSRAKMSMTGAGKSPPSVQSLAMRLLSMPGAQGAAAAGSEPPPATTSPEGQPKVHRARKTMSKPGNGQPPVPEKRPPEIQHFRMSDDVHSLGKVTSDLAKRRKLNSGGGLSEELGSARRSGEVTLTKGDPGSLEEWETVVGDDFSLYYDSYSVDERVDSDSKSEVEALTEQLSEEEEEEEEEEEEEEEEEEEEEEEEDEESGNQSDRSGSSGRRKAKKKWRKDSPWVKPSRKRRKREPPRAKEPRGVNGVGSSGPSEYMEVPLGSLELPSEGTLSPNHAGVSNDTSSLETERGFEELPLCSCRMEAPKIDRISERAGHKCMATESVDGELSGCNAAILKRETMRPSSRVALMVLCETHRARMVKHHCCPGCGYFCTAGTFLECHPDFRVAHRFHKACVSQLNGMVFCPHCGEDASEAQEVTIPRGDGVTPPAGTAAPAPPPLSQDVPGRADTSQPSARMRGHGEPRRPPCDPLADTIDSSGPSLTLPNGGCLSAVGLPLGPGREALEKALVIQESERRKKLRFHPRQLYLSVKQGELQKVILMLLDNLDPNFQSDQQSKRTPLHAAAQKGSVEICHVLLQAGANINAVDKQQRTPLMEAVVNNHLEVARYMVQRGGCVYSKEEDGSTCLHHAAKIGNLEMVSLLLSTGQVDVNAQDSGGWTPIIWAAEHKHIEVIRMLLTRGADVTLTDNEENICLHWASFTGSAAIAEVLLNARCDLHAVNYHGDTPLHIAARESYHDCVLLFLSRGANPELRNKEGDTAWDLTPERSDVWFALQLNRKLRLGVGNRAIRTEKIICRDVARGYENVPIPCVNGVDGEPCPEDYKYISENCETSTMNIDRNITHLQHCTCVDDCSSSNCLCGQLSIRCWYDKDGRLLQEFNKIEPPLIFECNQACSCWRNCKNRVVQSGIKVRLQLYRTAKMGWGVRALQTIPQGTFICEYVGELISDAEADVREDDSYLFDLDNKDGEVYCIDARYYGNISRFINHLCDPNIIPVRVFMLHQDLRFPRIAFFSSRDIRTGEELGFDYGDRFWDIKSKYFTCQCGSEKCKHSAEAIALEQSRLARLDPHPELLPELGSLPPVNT
Assay: MDA-MB-231 H3K9me2 in-cell Western assay (EHMT2 ICW)
Type: cell-based
Settings: MDA-MB-231 cells, H3K9me2 in-cell Western; read-out: EHMT2 ICW (IC50 μM)
Description: MDA-MB-231 cell line was purchased from ATCC (Manassas, Va., USA). RPMI/Glutamax medium, Penicillin-Streptomycin, Heat Inactivated Fetal Bovine Serum, and D-PBS were purchased from Life Technologies (Grand Island, N.Y., USA). Odyssey blocking buffer, 800CW goat anti-mouse IgG (H+L) antibody, and Licor Odyssey Infrared Scanner were purchased from Licor Biosciences, Lincoln, Nebr., USA. H3K9me2 mouse monoclonal antibody (Cat #1220) was purchased from Abcam (Cambridge, Mass., USA). 16% Paraformaldehyde was purchased from Electron Microscopy Sciences, Hatfield, Pa., USA). MDA-MB-231 cells were maintained in complete growth medium (RPMI supplemented with 10% v/v heat inactivated fetal bovine serum) and cultured at 37° C. under 5% CO2. UNC0638 was purchased from Sigma-Aldrich (St. Louis, Mo., USA).
General Procedure for MDA-MB-231 HEK9me2 in-cell Western Assay. Compound (100 nL) was added directly to 384-well cell plate. MDA-MB-231 cells (ATCC) were seeded in assay medium (RPMI/Glutamax supplemented with 10% v/v heat inactivated fetal bovine serum and 1% Penicillin/Streptomycin, Life Technologies) at a concentration of 3,000 cells per well to a Poly-D-Lysine coated 384-well cell culture plate with 50 μL per well. Plates were incubated at 37° C., 5% CO2 for 48 hours (BD Biosciences 356697). Plates were incubated at room temperature for 30 minutes and then incubated at 37° C., 5% CO2 for additional 48 hours. After the incubation, 50 μL per well of 8% paraformaldehyde (Electron Microscopy Sciences) in PBS was added to the plates and incubated at room temperature for 20 minutes. Plates were transferred to a Biotek 406 plate washer and washed 2 times with 100 μL per well of wash buffer (1×PBS containing 0.3% Triton X-100 (v/v)). Next, 60 μL per well of Odyssey blocking buffer (Licor Biosciences) was added to each plate and incubated for 1 hour at room temperature. Blocking buffer was removed and 20 μL of monoclonal primary antibody α-H3K9me2 (Abcam) diluted 1:800 in Odyssey buffer with 0.1% Tween 20 (v/v) were added and plates were incubated overnight (16 hours) at 4° C. Plates were washed 5 times with 100 μL per well of wash buffer. Next 20 μL per well of secondary antibody was added (1:500 800CW donkey anti-mouse IgG (H+L) antibody (Licor Biosciences), 1:1000 DRAQ5 (Cell Signaling Technology) in Odyssey buffer with 0.1% Tween 20 (v/v)) and incubated for 1 hour at room temperature. The plates were washed 5 times with […] wash buffer then 2 times with 100 μL per well of water. Plates were allowed to dry at room temperature then imaged on a Licor Odyssey Infrared Scanner (Licor Biosciences) which measured integrated intensity at 700 nm and 800 nm wavelengths. Both 700 and 800 channels were scanned.
% Inhibition Calculation. First, the ratio for each well was determined by:
Each plate included fourteen control wells of DMSO only treatment (Minimum Inhibition) as well as fourteen control wells (background wells) for maximum inhibition treated with control compound UNC0638 (Background wells).
The average of the ratio values for each well was calculated and used to determine the percent inhibition for each test well in the plate. Control compound was serially diluted three-fold in DMSO for a total of 10 test concentrations beginning at 1 μM. Percent inhibition was calculated as: […]
IC50 curves were generated using triplicate wells per concentration of compound. The IC50 is the concentration of compound at which measured methylation is inhibited by 50% as interpolated from the dose response curves. IC50 values were calculated using a non-linear regression (variable slope-four parameter fit model) with by the following formula:
where Top is fixed at 100% and Bottom is fixed to 0%, [I]=concentration of inhibitor, IC50=half maximal inhibitory concentration, and n=Hill Slope.

| IC50 [µM] | SMILES |
| --- | --- |
| 0.1 to 1 | CCNc1nc2cc(OCCCN3CCCC3)c(OC)cc2n1C [Compound 27] |
| 1 to 10 | COc1cc2c(cc1OCCCN1CCCC1)nc(NC(C)C)n2C [Compound 28] |
| 1 to 10 | COc1cc2c(cc1OCCCN1CCCC1)nc(NC1CCOCC1)n2C [Compound 29] |
| 1 to 10 | COc1cc2c(cc1OCCCN1CCCC1)nc(NC1CCCC1)n2C [Compound 30] |
| 0.1 to 1 | CCNc1nc2cc(OC[C@H](O)CN3CCCC3)c(OC)cc2n1C [Compound 31] |
| 1 to 10 | COc1cc2c(cc1OC[C@H](O)CN1CCCC1)nc(NC(C)C)n2C [Compound 32] |
| 1 to 10 | COc1cc2c(cc1OC[C@H](O)CN1CCCC1)nc(NC1CCCC1)n2C [Compound 33] |
| 0.1 to 1 | COc1cc2c(cc1OC[C@H](O)CN1CCCC1)nc(NCC1CC1)n2C [Compound 34] |
| > 10 | COc1cc2c(cc1OC[C@H](O)CN1CCCC1)nc(NC1CCOCC1)n2C [Compound 35] |
| < 0.1 | CNc1nc2cc(OCCCN3CCCC3)c(OC)cc2n1C(C)C [Compound 36] |
| 0.1 to 1 | CNc1nc2cc(CNCCN3CCCC3)c(OC)cc2n1C [Compound 37] |
| 0.1 to 1 | CNc1nc2cc(OC[C@H](O)CN3CCCC3)c(OC)cc2n1C1CCCC1 [Compound 38] |
| 0.1 to 1 | CCNc1nc2cc(OCCCN3CCCC3)c(OC)cc2n1CC [Compound 39] |
| 1 to 10 | CNc1nc2cc(CNCCN3CCCC3)c(OC)cc2n1C(C)C [Compound 40] |
| 0.1 to 1 | CCn1c(NC)nc2cc(CNCCN3CCCC3)c(OC)cc21 [Compound 41] |
| < 0.1 | CCn1c(NC)nc2cc(OCCCN3CCCC3)c(OC)cc21 [Compound 42] |

| IC50 [µM] | SMILES |
| --- | --- |
| 0.1 to 1 | CNC1=Nc2cc(CNCCN3CCCC3)c(OC)cc2C12CCC2 [Compound 70] |
| 1 to 10 | CCNC1=Nc2cc(CNCCN3CCCC3)c(OC)cc2C12CCC2 [Compound 71] |
| 1 to 10 | CCNC1=Nc2cc(CNCCN3CCC3)c(OC)cc2C12CCC2 [Compound 72] |
| 0.1 to 1 | CCCNC1=Nc2cc(CNCCN3CCCC3)c(OC)cc2C12CCC2 [Compound 73] |
| < 0.1 | CNC1=Nc2cc(C#CCN3CCCC3)c(OC)cc2C12CCC2 [Compound 74] |
| < 0.1 | CNC1=Nc2cc(C#CCN3CCCCC3)c(OC)cc2C12CCC2 [Compound 75, 5′-methoxy-N-methyl-6′-(3-(piperidin-1-yl)prop-1-yn-1-yl)spiro[cyclobutane-1,3′-indol]-2′-amine] |
| 1 to 10 | COc1cc2c(cc1CNCCN1CCCC1)N=C(NC1CCOCC1)C21CCC1 [Compound 76] |
| 0.1 to 1 | CNC1=Nc2cc(C#CC(C)N3CCCC3)c(OC)cc2C12CCC2 (stereo not shown) [Compound 84] |
| < 0.1 | CNC1=Nc2cc(C#C[C@H](C)N3CCCC3)c(OC)cc2C12CCC2 [Compound 85] |
| 0.1 to 1 | CNC1=Nc2cc(C#C[C@@H](C)N3CCCC3)c(OC)cc2C12CCC2 [Compound 86] |
| 0.1 to 1 | CNC1=Nc2cc(C#CC(C)N3CCCCC3)c(OC)cc2C12CCC2 (stereo not shown) [Compound 92] |
| 0.1 to 1 | COCCNC1=Nc2cc(C#CCN3CCCCC3)c(OC)cc2C12CCC2 [Compound 99] |
| 1 to 10 | CNC1=Nc2cc(C#CCN3CCC(F)C3)c(OC)cc2C12CCC2 (stereo not shown) [Compound 100] |
| 1 to 10 | CNc1nc2cc(CNCCN3CCCC3)c(Cl)cc2n1C(C)C [Compound 138] |
| 1 to 10 | CNc1nc2cc(CNCCN3CCCC3)c(C)cc2n1C(C)C [Compound 139] |

From patent US20220274961A1, “SUBSTITUTED FUSED BI- OR TRI- HETEROCYCLIC COMPOUNDS AS EHMT2 INHIBITORS” (priority 2016, published 2022)
